Results as given in patent US7375259B1, “Solanum tuberosum sterol alkaloid glycosyltransferase (SGT) a novel solanidine glucosyltransferase SGT2 and uses thereof” (priority 2005, dated 2008).

Assays:
recombinant SGT2 = test: in vitro solanidine glycosyltransferase assay of recombinant SGT2 with Solanaceous aglycones and UDP-[3H]sugar donors; conditions: for SGT2 galactosyltransferase activity with aglycone substrate: UDP-[3H]galactose as sugar donor, activity threshold 2-fold the reaction blank; for SGT2 glucosyltransferase activity with aglycone substrate: UDP-[3H]glucose as sugar donor, 60 min, 37° C., SGAs and UDP-sugars 33 μM
SGT2 = type: biochemical, Solanum tuberosum; conditions: 1,000 μM inhibitor
Colorado potato beetle = conditions: artificial diets; Kowalski et al. 1999; cited from earlier work

C[C@H]1CC[C@@H]2[C@@H](C)[C@H]3[C@H](C[C@H]4[C@@H]5CC=C6C[C@@H](O)CC[C@]6(C)[C@H]5CC[C@]34C)N2C1 [solanidine]
SGT2 galactosyltransferase activity with aglycone substrate (recombinant SGT2): No activity
SGT2 glucosyltransferase activity with aglycone substrate (recombinant SGT2): maximum activity

C[C@@H]1CC[C@@]2(NC1)O[C@H]1C[C@H]3[C@@H]4CC=C5C[C@@H](O)CC[C@]5(C)[C@H]4CC[C@]3(C)[C@H]1[C@@H]2C [solasodine]
SGT2 galactosyltransferase activity with aglycone substrate (recombinant SGT2): No activity
SGT2 glucosyltransferase activity with aglycone substrate (recombinant SGT2): readily capable of utilizing UDP-glucose as a substrate

C[C@H]1CC[C@]2(NC1)O[C@H]1C[C@H]3[C@@H]4CC[C@H]5C[C@@H](O)CC[C@]5(C)[C@H]4CC[C@]3(C)[C@H]1[C@@H]2C [tomatidine]
SGT2 galactosyltransferase activity with aglycone substrate (recombinant SGT2): No activity
SGT2 glucosyltransferase activity with aglycone substrate (recombinant SGT2): readily capable of utilizing UDP-glucose as a substrate

C[C@H]1CC[C@@H]2[C@@H](C)[C@H]3[C@H](C[C@H]4[C@@H]5CC=C6C[C@@H](O[C@@H]7O[C@H](CO)[C@H](O[C@@H]8O[C@@H](C)[C@H](O)[C@@H](O)[C@H]8O)[C@H](O)[C@@H]7O[C@@H]7O[C@@H](C)[C@@H](O)[C@@H](O)[C@H]7O)CC[C@]6(C)[C@H]5CC[C@]34C)N2C1 [α-chaconine]
inhibition of SGT2 activity (in words) (SGT2): completely inhibited

C[C@H]1CC[C@@H]2[C@@H](C)[C@H]3[C@H](C[C@H]4[C@@H]5CC=C6C[C@@H](O[C@@H]7O[C@H](CO)[C@H](O)[C@H](O[C@@H]8O[C@H](CO)[C@@H](O)[C@H](O)[C@H]8O)[C@H]7O[C@@H]7O[C@@H](C)[C@H](O)[C@@H](O)[C@H]7O)CC[C@]6(C)[C@H]5CC[C@]34C)N2C1 [α-solanine]
inhibition of SGT2 activity (SGT2): 39%
toxicity to the Colorado potato beetle (Colorado potato beetle): more toxic
